Experimental data published in ChEMBL document CHEMBL5150003, “Why All the Fury over Furin?” (J Med Chem, 2022).
Numbered stars: 1 amine (or outer) side, 2 acyl side, 3 side chain; on linkers, the order of the positions; unused ones are H or OH. Square brackets hold non-standard residues; d marks the D form. Peptide text beside a SMILES is read from it. * marks the point of attachment. X2 = CC(C(=O)[*:2])n1cc(C(CCCNC(=N)N)N[*:1])nn1; NH(4-amidinobenzyl) = N=C(N)c1ccc(CN*)cc1

Legend:
Furin [1] = biological target: T1, Furin (Homo sapiens, UniProt P09958); experiment: Inhibition of human furin expressed in HEK293 cells using pGlu-Arg-Thr-LysArg-AMC as substrate and measured by fluorescence based assay
T1 sequence (P09958 whole entry): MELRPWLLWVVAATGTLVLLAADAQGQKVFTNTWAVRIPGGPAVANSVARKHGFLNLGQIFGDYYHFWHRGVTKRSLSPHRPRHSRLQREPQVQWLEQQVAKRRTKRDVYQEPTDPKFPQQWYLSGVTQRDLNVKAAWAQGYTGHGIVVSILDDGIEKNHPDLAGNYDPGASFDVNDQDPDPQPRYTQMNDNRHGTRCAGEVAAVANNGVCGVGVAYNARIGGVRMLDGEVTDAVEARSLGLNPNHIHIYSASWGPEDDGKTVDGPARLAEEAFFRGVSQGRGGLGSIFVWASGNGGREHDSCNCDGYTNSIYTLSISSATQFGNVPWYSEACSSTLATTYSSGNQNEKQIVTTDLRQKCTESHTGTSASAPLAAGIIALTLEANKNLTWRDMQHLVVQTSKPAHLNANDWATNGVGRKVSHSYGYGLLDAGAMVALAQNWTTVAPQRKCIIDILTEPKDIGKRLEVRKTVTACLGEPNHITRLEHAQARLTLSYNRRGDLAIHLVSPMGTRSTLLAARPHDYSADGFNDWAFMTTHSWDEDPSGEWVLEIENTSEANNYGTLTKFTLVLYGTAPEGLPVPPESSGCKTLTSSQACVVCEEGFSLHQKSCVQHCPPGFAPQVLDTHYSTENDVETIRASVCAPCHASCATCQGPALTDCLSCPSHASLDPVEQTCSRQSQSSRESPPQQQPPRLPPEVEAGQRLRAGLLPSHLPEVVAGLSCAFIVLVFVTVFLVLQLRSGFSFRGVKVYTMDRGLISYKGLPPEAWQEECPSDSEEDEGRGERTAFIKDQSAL

Furin [2] = biological target: T1, Furin; experiment: Inhibition of recombinant human furin using Phac-Arg-Val-Arg-Arg-AMC as substrate incubated for 30 mins and measured by microplate reader method
Furin [3] = biological target: T1, Furin; experiment: Inhibition of furin in human U2OS cells measured after 24 hrs by fluorescence assay; assay type: cell-based
Mus musculus [4] = experiment: Antifibrotic activity against bleomycin-induced mouse lung fibrosis model assessed as inhibition of TGF-beta secretion in lung at 10 mg/kg, ip administered twice daily; assay type: functional
Mus musculus [5] = experiment: Antifibrotic activity against bleomycin-induced mouse lung fibrosis model assessed as inhibition of hydroxyproline content in lung at 10 mg/kg, ip administered twice daily; assay type: functional
Furin [6] = biological target: T1, Furin; experiment: Inhibition of human furin using Pyr-RTKR-AMC as substrate preincubated for 30 mins followed by substrate addition and measured by fluorescence based assay
Furin [7] = biological target: T1, Furin; experiment: Inhibition of furin (unknown origin)
[8] = Dissociation constant, pKa of the compound; assay type: physicochemical
Mus musculus [9] = experiment: Antifibrotic activity against bleomycin-induced mouse lung fibrosis model assessed as inhibition of TGF-beta secretion in lung at 30 mg/kg, po administered once daily; assay type: functional
Mus musculus [10] = experiment: Antifibrotic activity against bleomycin-induced mouse lung fibrosis model assessed as inhibition of hydroxyproline content in lung at 30 mg/kg, po administered once daily; assay type: functional
[11] = Stability in mouse plasma assessed as compound remaining measured after 24 hrs; assay type: ADME, cell-free; details: read-out: Stability
[12] = Stability in mouse plasma assessed as half-life; assay type: ADME, cell-free
Vero = experiment: Protective activity against Escherichia coli O157:H7 Shiga toxin-induced cytotoxicity in monkey Vero cells measured by LDH assay; assay type: functional, cell-based; details: Chlorocebus sabaeus
Mus musculus [13] = experiment: Antifibrotic activity against bleomycin-induced mouse lung fibrosis model assessed as inhibition of TGF-beta secretion in lung at 10 mg/kg, ip administered once daily; assay type: functional
Mus musculus [14] = experiment: Antifibrotic activity against bleomycin-induced mouse lung fibrosis model assessed as inhibition of hydroxyproline content in lung at 10 mg/kg, ip administered once daily; assay type: functional
Furin [15] = biological target: T1, Furin; experiment: Inhibition of soluble recombinant human furin using pyroGlu-Arg-Thr-Lys-Arg-AMC as substrate and measured by fluorescence assay

Structure (SMILES): CC(C)[C@H](NC(=O)[C@H](CCCNC(=N)N)NC(=O)Cc1cccc(CNC(=N)N)c1)C(=O)N[C@@H](CCCNC(=N)N)C(=O)NCc1ccc(C(=N)N)cc1
- Ki (Furin [1]): 0.016 nM

Structure (SMILES): CC(C)[C@H](NC(=O)CCCCNC(=N)N)C(=O)N[C@@H](CCCNC(=N)N)C(=O)NCc1ccc(C(=N)N)cc1
- Ki (Furin [2]): 2.5 nM

Structure (SMILES): CC(=O)NCC1CCN(Cc2cc(Oc3ccc(N4CCN(CCC(=O)O)CC4)nc3)nc(-c3cc(Cl)cc(Cl)c3)c2)CC1
- pXC50 (Furin [3]): 7.6
- inhibition in vivo at 10 mg/kg (Mus musculus [4]): 69%
- inhibition in vivo at 10 mg/kg (Mus musculus [5]): 67%

Structure (SMILES): CC(C)[C@H](NS(=O)(=O)Cc1ccc(C(=N)N)cc1)C(=O)N[C@@H](CCCNC(=N)N)C(=O)NCc1ccc(C(=N)N)cc1
- Ki (Furin [6]): 0.3 µM

Structure (SMILES): CC(C)(C)[C@H](NC(=O)[C@H](CCCNC(=N)N)NC(=O)Cc1ccc(CNC(=N)N)cc1)C(=O)N[C@@H](CCCNC(=N)N)C(=O)NCc1ccc(C(=N)N)c(F)c1
- IC50 (Furin [7]): 0.00056 µM
- Ki (Furin [7]): 0.0223 nM
- pKa [8]: 9.46

Structure (SMILES): COC(=O)NCC1CCN(Cc2cc(Oc3cnc(N4CCN(CCC(=O)O)CC4)nc3)nc(-c3cc(Cl)cc(Cl)c3)c2)CC1
- pXC50 (Furin [3]): 7.5
- inhibition in vivo at 30 mg/kg (Mus musculus [9]): 7%
- inhibition in vivo at 30 mg/kg (Mus musculus [10]): -14%

Structure (SMILES): CC(C(=O)N[C@@H](C)C(=O)N[C@@H](CCCNC(=N)N)C(=O)N[C@@H](CCCNC(=N)N)C(=O)N[C@@H](CCCNC(=N)N)C(=O)N[C@@H](CCCCN)C(=O)N[C@@H](CCCCN)C(=O)N[C@@H](CCCNC(=N)N)C(=O)N[C@H](C(N)=O)[C@@H](C)O)n1cc(C(CCCNC(=N)N)NC(=O)[C@@H](N)CCCNC(=N)N)nn1 (some centres not stated) (H-R[X2]ARRRKKRT-NH2)
- Ki (Furin [7]): 13 nM
- remaining at 24 h [11]: 20%
- half-life [12]: 1.24 h

Structure (SMILES): CC1C(=O)N[C@@H](CCCNC(=N)N)C(=O)N[C@@H](C)C(=O)N[C@@H](CCCNC(=N)N)C(=O)N[C@@H](CCCNC(=N)N)C(=O)N[C@@H](CCCNC(=N)N)C(=O)N[C@H](C(=O)N[C@@H](CCCCN)C(=O)N[C@@H](CCCNC(=N)N)C(=O)N[C@H](C(N)=O)[C@@H](C)O)CCCCNC(CCCNC(=N)N)c2cn1nn2 (some centres not stated)
- Ki (Furin [7]): 16.7 nM
- remaining at 24 h [11]: 28%
- half-life [12]: 0.7 h

Structure (SMILES): CC(=O)N[C@@H](CCCNC(=N)N)C(=O)N[C@@H](C)C(=O)N[C@@H](CCCNC(=N)N)C(=O)N[C@@H](CCCNC(=N)N)C(=O)N[C@@H](CCCNC(=N)N)C(=O)N[C@@H](CCCCN)C(=O)N[C@@H](CCCCN)C(=O)NCc1ccc(C(=N)N)cc1 (Ac-RARRRKK-{NH(4-amidinobenzyl)})
- Ki (Furin [7]): 3.8 nM
- half-life [12]: 9.1 h
- IC50 (Vero): > 1000 µM

Structure (SMILES): CC(=O)N[C@@H](CCCNC(=N)N)C(=O)N[C@H](C(=O)N[C@@H](Cc1ccc(N=C(N)N)cc1)C(=O)NCc1ccc(C(=N)N)c(F)c1)C(C)C
- Ki (Furin [6]): 0.0037 µM

Structure (SMILES): CC(=O)N[C@@H](CCCNC(=N)N)C(=O)N[C@H](C(=O)N[C@@H](Cc1ccc(N=C(N)N)cc1)C(=O)NCc1ccc(/C(N)=N/O)cc1)C(C)C
- Ki (Furin [6]): 1.2 µM

Structure (SMILES): CC(=O)NN(CCCNC(=N)N)CC(=O)N[C@@H](C)C(=O)N[C@@H](CCCNC(=N)N)C(=O)N[C@@H](CCCNC(=N)N)C(=O)N[C@@H](CCCNC(=N)N)C(=O)N[C@@H](CCCCN)C(=O)N[C@@H](CCCCN)C(=O)NN(CCCNC(=N)N)CC(=O)N[C@H](C(N)=O)[C@@H](C)O
- Ki (Furin [7]): 46 nM
- remaining at 24 h [11]: 45%
- half-life [12]: 2.68 h
- IC50 (Vero): 20.8 µM

Structure (SMILES): CN1CCCN(c2cnc(Oc3cc(CN4CCC(CC(=O)O)CC4)cc(-c4cc(Cl)cc(Cl)c4)n3)cn2)CC1
- pXC50 (Furin [3]): 7.7
- inhibition in vivo at 30 mg/kg (Mus musculus [9]): 26%
- inhibition in vivo at 30 mg/kg (Mus musculus [10]): 21%

Structure (SMILES): CC(=O)NCC1CCN(Cc2cc(Oc3ccc(N4CCN(CCO)CC4)nc3)nc(-c3cc(Cl)cc(Cl)c3)c2)CC1
- pXC50 (Furin [3]): 8.5
- inhibition in vivo at 10 mg/kg (Mus musculus [13]): 60%
- inhibition in vivo at 10 mg/kg (Mus musculus [14]): 56%

Structure (SMILES): CC(C)(C)[C@H](NC(=O)[C@H](CCCNC(=N)N)NC(=O)Cc1ccc(CNC(=N)N)cc1)C(=O)N[C@@H](CCCONC(=N)N)C(=O)NCc1ccc(C(=N)N)cc1
- Ki (Furin [2]): 0.0131 nM

Structure (SMILES): O=C(O)CC1CCN(Cc2cc(Oc3cnc(N4CCN5CCC4C5)nc3)nc(-c3cc(Cl)cc(Cl)c3)c2)CC1 (configuration not stated)
- pXC50 (Furin [3]): 7.7
- inhibition in vivo at 30 mg/kg (Mus musculus [9]): 36%
- inhibition in vivo at 30 mg/kg (Mus musculus [10]): 34%

Structure (SMILES): N=C(N)N/N=C/c1ccc(Oc2ccc(Oc3ccc(/C=N/NC(=N)N)cc3)cc2)cc1
- Ki (Furin [15]): 0.74 µM

Structure (SMILES): CNC(=O)NCC1CCN(Cc2cc(Oc3ccc(N4CCN(CCC(=O)O)CC4)nc3)nc(-c3cc(Cl)cc(Cl)c3)c2)CC1
- pXC50 (Furin [3]): 7.6
- inhibition in vivo at 10 mg/kg (Mus musculus [13]): 67%
- inhibition in vivo at 10 mg/kg (Mus musculus [14]): 39%

Structure (SMILES): CC(=O)N[C@@H](CCCNC(=N)N)C(=O)N[C@H](C(=O)N[C@@H](Cc1ccc(N=C(N)N)cc1)C(=O)NCc1ccc(C(=N)N)cc1)C(C)C
- Ki (Furin [6]): 0.007 µM
